These results are taken from patent publication US9884818B2, “Sulphamoylpyrrolamide derivatives and the use thereof as medicaments for the treatment of hepatitis B” (Janssen Sciences Ireland UC, priority 2013, dated 2018).

The structures appear in SMILES notation.

In data set [1] the test system is HBV. Briefly: Anti-HBV activity, HepG2.2.15 stable transfected cell line, HBV DNA from secreted virions by realtime PCR. The data set is classed as cell-based. Particulars: Hepatitis B virus, HepG2.2.15, 144 h, HepG2.2.15 cells, 6 days of treatment, HBV DNA from secreted virions; read-out: HepG2 2.15 EC50.
In data set [2] the test system is HBV. Briefly: Anti-HBV activity, HepG2.117 inducibly HBV producing cell line (Tet-off), intracellular HBV DNA by realtime PCR. It counts as cell-based. The following applies: Hepatitis B virus, HepG2.117, 72 h, HepG2.117 cells, 3 days of treatment, intracellular HBV DNA; read-out: HepG2 117 EC50.
Data set [3] is described as follows: Cytotoxicity in HepG2 cells, Resazurin viability assay. Particulars: human, HepG2 cells, HepG2 4 days CC50 (μM), incubated for 4 days, Resazurin assay.

As usually defined, the EC50 is the concentration needed to bring the measured effect to its halfway point. What is called CC50 is the concentration giving 50% cytotoxicity. A lower CC50 goes with harm at low concentration. Consider `Cn1cc(S(=O)(=O)NC2(C)COC2)cc1C(=O)Nc1ccc(F)c(Br)c1` [Compound 81], for which the EC50 in the data set on HBV [1] is 10 nM; with HBV [2], 50 nM. In data set [3], this compound displayed a CC50 at 4 days of more than 25 µM.

With `CC(CC(F)(F)F)NS(=O)(=O)c1cc(C(=O)Nc2cc(F)c(F)c(Cl)c2)n(C)c1` (racemic) [Compound 169, N-(3-Chloro-4,5-difluorophenyl)-1-methyl-4-[(3,3,3-trifluoro-1-methylpropyl)sulfamoyl]-1H-pyrrole-2-carboxamide], the EC50 in the data set with HBV [1] amounted to 120 nM; in the data set with HBV [2] it was 70 nM. Further, the 50% cytotoxic concentration (CC50) at 4 days in data set [3] amounted to 11.2 µM.

On to `CC(C)NS(=O)(=O)c1cc(C(=O)Nc2cccc(Cl)c2F)n(C)c1` [Compound 173, N-(3-Chloro-2-fluorophenyl)-1-methyl-4-[(1-methylethyl)sulfamoyl]-1H-pyrrole-2-carboxamide], for which the EC50 in the data set on HBV [1] is 210 nM; in the data set on HBV [2], 320 nM. Besides, the CC50 at 4 days in data set [3] is more than 25 µM.

Regarding `C[C@@H](NS(=O)(=O)c1cn(C)c(C(=O)Nc2ccc(F)c(F)c2)c1Cl)C(F)(F)F` [Compound 217, 3-Chloro-N-(3,4-difluorophenyl)-1-methyl-4-{[(1R)-2,2,2-trifluoro-1-methylethyl]sulfamoyl}-1H-pyrrole-2-carboxamide], the EC50 in the data set on HBV [1] and with HBV [2] was 5 nM in each case. This compound showed a CC50 at 4 days in data set [3] of more than 25 µM.

Turning to `Cc1cc(NC(=O)c2cc(S(=O)(=O)N[C@H](C)CO)cn2C)ccc1F` [Compound 3, N-(4-fluoro-3-methyl-phenyl)-4-[[(1R)-2-hydroxy-1-methyl-ethyl]sulfamoyl]-1-methyl-pyrrole-2-carboxamide], the EC50 is 70 nM in the data set with HBV [1] and 100 nM in the data set on HBV [2]. Further, the CC50 at 4 days in data set [3] was more than 25 µM.

Take `C[C@H](NS(=O)(=O)c1cc(C(=O)Nc2ccc(F)c(C#N)c2)n(C)c1)C(F)(F)F` [Compound 102, N-(3-Cyano-4-fluorophenyl)-1-methyl-4-{[(1S)-2,2,2-trifluoro-1-methylethyl]sulfamoyl}-1H-pyrrole-2-carboxamide]: the EC50 in the data set with HBV [1] and with HBV [2] was 60 nM in each case. In addition, in data set [3], the CC50 at 4 days was more than 25 µM.

Consider `Cc1cc(NC(=O)c2cc(S(=O)(=O)NC3(C)COC3)cn2C)cc(C(F)(F)F)c1` [Compound 82, 1-Methyl-4-[(3-methyloxetan-3-yl)sulfamoyl]-N-[3-methyl-5-(trifluoro-methyl)phenyl]-1H-pyrrole-2-carboxamide], for which the EC50 was determined as 170 nM in the data set on HBV [1] and 490 nM with HBV [2]. Moreover, in data set [3], the CC50 at 4 days was more than 25 µM.

`C[C@@H](NS(=O)(=O)c1cn(C)c(C(=O)Nc2ccc(F)c(Cl)c2F)c1Cl)C(F)(F)F` [Compound 218, 3-Chloro-N-(3-chloro-2,4-difluorophenyl)-1-methyl-4-{[(1R)-2,2,2-trifluoro-1-methylethyl]sulfamoyl}-1H-pyrrole-2-carboxamide]: the EC50 in the data set on HBV [1] came out at 9 nM; in the data set on HBV [2], 7 nM. In addition, the CC50 at 4 days in data set [3] was more than 25 µM.

For `Cc1cc(NC(=O)c2cc(S(=O)(=O)NC3(C)COC3)c(C)n2C)ccc1F` [Compound 89, N-(4-Fluoro-3-methylphenyl)-1,5-dimethyl-4-[(3-methyloxetan-3-yl)sulfamoyl]-1H-pyrrole-2-carboxamide], the EC50 in the data set on HBV [1] and in the data set with HBV [2] was 20 nM throughout. The compound also came in with a CC50 at 4 days in data set [3] of more than 25 µM.

For `Cn1cc(S(=O)(=O)NC2(C)CC(F)(F)C2)cc1C(=O)Nc1ccc(F)c(Cl)c1F` [Compound 256, N-(3-chloro-2,4-difluoro-phenyl)-4-[(3,3-difluoro-1-methyl-cyclo-butyl)sulfamoyl]-1-methyl-1H-pyrrole-2-carboxamide], the EC50 in the data set with HBV [1] was determined as 20 nM; in the data set with HBV [2], 30 nM. In data set [3], this compound displayed a CC50 at 4 days of more than 25 µM.

Turning to `C[C@@H](NS(=O)(=O)c1cn(C)c(C(=O)Nc2cccc(C#N)c2F)c1F)C(F)(F)F` [Compound 182, N-(3-Cyano-2-fluorophenyl)-3-fluoro-1-methyl-4-{[(1R)-2,2,2-trifluoro-1-methylethyl]sulfamoyl}-1H-pyrrole-2-carboxamide], the EC50 in the data set on HBV [1] was 10 nM; in the data set on HBV [2] it was 30 nM. In data set [3], this compound returned a CC50 at 4 days of more than 25 µM.

For the compound `C[C@H](NS(=O)(=O)c1cc(C(=O)Nc2ccc(F)c(F)c2F)n(C)c1)C(F)(F)F` [Compound 154, 1-Methyl-4-{[(1S)-2,2,2-trifluoro-1-methylethyl]sulfamoyl}-N-(2,3,4-trifluorophenyl)-1H-pyrrole-2-carboxamide], the EC50 in the data set on HBV [1] stood at 130 nM; in the data set with HBV [2], 80 nM. The compound also returned a CC50 at 4 days in data set [3] of more than 25 µM.

As to `CC[C@@H](NS(=O)(=O)c1cc(C(=O)Nc2ccc(F)c(Cl)c2F)n(C)c1)C(F)(F)F` [Compound 265, N-(3-chloro-2,4-difluoro-phenyl)-1-methyl-4-{[(1R)-1-(trifluoro-methyl)propyl]sulfamoyl}-1H-pyrrole-2-carboxamide], the EC50 in the data set with HBV [1] was found to be 10 nM; in the data set with HBV [2] it was 30 nM. The CC50 at 4 days in data set [3] was more than 25 µM.

As for `C[C@@H](NS(=O)(=O)c1cc(C(=O)Nc2ccc(F)c(C#N)c2)n(C)c1)C(F)(F)F` [Compound 157, N-(3-cyano-4-fluoro-phenyl)-1-methyl-4-[[(1R)-2,2,2-trifluoro-1-methylethyl]sulfamoyl]pyrrole-2-carboxamide], the values for the EC50 with HBV [1] and with HBV [2] were 80 nM and 50 nM, respectively. The CC50 at 4 days in data set [3] is more than 25 µM.

In the case of `Cc1c(S(=O)(=O)N[C@@H](C)C(F)(F)F)cn(C)c1C(=O)Nc1ccc(F)c(F)c1` [Compound 146, N-(3,4-Difluorophenyl)-1,3-dimethyl-4-{[(1S)-2,2,2-trifluoro-1-methylethyl]sulfamoyl}-1H-pyrrole-2-carboxamide], the EC50 is 70 nM with HBV [1] and 40 nM in the data set with HBV [2]. Moreover, in data set [3], the CC50 at 4 days is more than 25 µM.

Take `[2H]c1c(F)c(F)c(F)c([2H])c1NC(=O)c1cc(S(=O)(=O)NC(C)(C)C)cn1C` [Compound 71, 4-(tert-butylsulfamoyl)-N-(2,6-dideuterio-3,4,5-trifluoro-phenyl)-1-methyl-pyrrole-2-carboxamide]: the EC50 came to 100 nM in the data set with HBV [1] and 130 nM in the data set with HBV [2]. For the same compound, the CC50 at 4 days in data set [3] is more than 25 µM.

In the case of `Cn1cc(S(=O)(=O)NC2(C)CCOC2)cc1C(=O)Nc1ccc(F)c(F)c1` (stereo not drawn) [Compound 91, N-(3,4-Difluorophenyl)-1-methyl-4-[(3-methyltetrahydrofuran-3-yl)sulfamoyl]-1H-pyrrole-2-carboxamide], the figures for the EC50 in the data set on HBV [1] and in the data set on HBV [2] were 60 nM and 40 nM, respectively. For the same compound, the 50% cytotoxic concentration (CC50) at 4 days in data set [3] is more than 25 µM.

Consider `Cn1cc(S(=O)(=O)NCC(F)F)cc1C(=O)Nc1cc(F)c(F)c(Cl)c1` [Compound 130, N-(3-Chloro-4,5-difluorophenyl)-4-[(2,2-difluoroethyl)sulfamoyl]-1-methyl-1H-pyrrole-2-carboxamide], for which the EC50 with HBV [1] was 90 nM; with HBV [2], 150 nM. In data set [3], this compound returned a CC50 at 4 days of more than 25 µM.

Take `Cn1cc(S(=O)(=O)NC2(C)CC(F)(F)C2)cc1C(=O)Nc1cc(F)c(F)c(Cl)c1` [Compound 65, N-(3-chloro-4,5-difluoro-phenyl)-4-[(3,3-difluoro-1-methyl-cyclo-butyl)sulfamoyl]-1-methyl-pyrrole-2-carboxamide]: the EC50 with HBV [1] and in the data set with HBV [2] was 10 nM in each case. The same compound showed a CC50 at 4 days in data set [3] of more than 25 µM.

Turning to `Cn1cc(S(=O)(=O)NC(C)(C)C)cc1C(=O)Nc1ccc(F)c(Cl)c1` [Compound 195, 4-(tert-Butylsulfamoyl)-N-(3-chloro-4-fluorophenyl)-1-methyl-1H-pyrrole-2-carboxamide], the EC50 in the data set with HBV [1] and with HBV [2] was 40 nM in each case. This compound also had a CC50 at 4 days in data set [3] of more than 25 µM.

As for `Cc1c(S(=O)(=O)N[C@H](C)C(F)(F)F)c(Cl)c(C(=O)Nc2ccc(F)c(C#N)c2)n1C` [Compound 282, 3-chloro-N-(3-cyano-4-fluoro-phenyl)-1,5-dimethyl-4-[[(1R)-2,2,2-trifluoro-1-methyl-ethyl]sulfamoyl]pyrrole-2-carboxamide], the EC50 with HBV [1] was less than 5 nM; in the data set with HBV [2], 5 nM. For the same compound, in data set [3], the CC50 at 4 days was more than 25 µM.

Regarding `C[C@H](NS(=O)(=O)c1cc(C(=O)Nc2cc(F)c(F)c(Cl)c2)n(C)c1)C(F)(F)F` [Compound 103, N-(3-Chloro-4,5-difluorophenyl)-1-methyl-4-{[(1S)-2,2,2-trifluoro-1-methylethyl]sulfamoyl}-1H-pyrrole-2-carboxamide], the EC50 with HBV [1] worked out at 50 nM; with HBV [2], 20 nM. The compound also displayed a cytotoxic concentration (CC50) at 4 days in data set [3] of more than 25 µM.

As for `C[C@H](NS(=O)(=O)c1cc(C(=O)Nc2ccc(F)c(F)c2)n(C)c1)C(F)(F)F` [Compound 93, N-(3,4-Difluorophenyl)-1-methyl-4-{[(1S)-2,2,2-trifluoro-1-methyl-ethyl]sulfamoyl}-1H-pyrrole-2-carboxamide], the EC50 in the data set with HBV [1] and in the data set on HBV [2] was 30 nM each time. The compound further returned a CC50 at 4 days in data set [3] of more than 25 µM.

Take `Cn1cc(S(=O)(=O)NC(C)(C)C(F)(F)F)c(Cl)c1C(=O)Nc1ccc(F)c(C#N)c1` [Compound 270, 3-Chloro-N-(3-cyano-4-fluorophenyl)-1-methyl-4-[(2,2,2-trifluoro-1,1-dimethylethyl)sulfamoyl]-1H-pyrrole-2-carboxamide]: the EC50 in the data set on HBV [1] was determined as 60 nM; in the data set with HBV [2], 110 nM. For the same compound, the CC50 at 4 days in data set [3] is more than 25 µM.

For the compound `Cn1cc(S(=O)(=O)NC2(C(F)(F)F)CC2)cc1C(=O)Nc1ccc(F)c(Cl)c1F` [Compound 253, N-(3-chloro-2,4-difluoro-phenyl)-1-methyl-4-{[1-(trifluoromethyl)-cyclopropyl]sulfamoyl}-1H-pyrrole-2-carboxamide], the EC50 in the data set on HBV [1] and in the data set with HBV [2] was 10 nM each time. In data set [3], the CC50 at 4 days is more than 25 µM.
